Experimental data as given in patent US9522886B2, “Pyridine derivatives” (Hoffmann-La Roche Inc., priority 2012, dated 2016).
Like-named read-outs stand apart in the source and are kept apart here.

Legend:
human CB1 receptors = human CB1 receptors (Homo sapiens (Human), UniProt P21554); experiment: cAMP assay, CHO cells expressing human CB1 receptors; type: cell-based
human CB2 receptors = human CB2 receptors (Homo sapiens (Human), UniProt P34972); experiment: cAMP assay, CHO cells expressing human CB2 receptors; type: cell-based
[1] = functional cAMP assay, CHO cells expressing human CB1, read-out: human CB1 EC50
[2] = functional cAMP assay, CHO cells expressing human CB2, read-out: human CB2 EC50

Chain of human CB2 receptors (P34972 whole entry): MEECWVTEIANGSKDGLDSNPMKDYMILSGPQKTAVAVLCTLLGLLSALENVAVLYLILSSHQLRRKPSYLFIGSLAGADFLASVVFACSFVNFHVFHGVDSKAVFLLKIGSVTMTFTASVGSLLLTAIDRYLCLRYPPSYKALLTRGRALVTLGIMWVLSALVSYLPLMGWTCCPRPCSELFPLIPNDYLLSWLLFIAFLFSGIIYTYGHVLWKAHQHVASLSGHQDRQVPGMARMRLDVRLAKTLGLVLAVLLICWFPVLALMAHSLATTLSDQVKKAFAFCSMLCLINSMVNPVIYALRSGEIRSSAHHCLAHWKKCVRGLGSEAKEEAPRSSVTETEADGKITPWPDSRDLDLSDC
Chain of human CB1 receptors (P21554 whole entry): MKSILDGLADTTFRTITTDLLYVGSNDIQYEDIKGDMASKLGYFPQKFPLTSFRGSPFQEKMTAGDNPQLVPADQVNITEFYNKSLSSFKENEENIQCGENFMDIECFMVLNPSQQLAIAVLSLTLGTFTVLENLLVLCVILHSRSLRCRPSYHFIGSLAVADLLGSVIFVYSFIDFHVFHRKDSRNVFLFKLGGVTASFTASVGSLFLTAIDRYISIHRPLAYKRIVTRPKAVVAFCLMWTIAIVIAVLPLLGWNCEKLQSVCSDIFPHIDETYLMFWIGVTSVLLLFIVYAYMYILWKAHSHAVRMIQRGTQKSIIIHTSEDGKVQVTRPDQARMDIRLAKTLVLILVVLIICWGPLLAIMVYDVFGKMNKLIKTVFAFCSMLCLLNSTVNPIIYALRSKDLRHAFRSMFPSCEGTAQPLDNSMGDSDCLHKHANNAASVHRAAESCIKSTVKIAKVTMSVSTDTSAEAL

SMILES | EC50 (human CB1 receptors; [1]) | EC50 (human CB2 receptors; [2]) | EC50 (human CB1 receptors) | EC50 (human CB2 receptors)
NC(=O)CC1(NC(=O)c2ccc(C(F)(F)F)c(OCC3CCOCC3)n2)CS(=O)(=O)C1 [Example 78, N-[3-(2-Amino-2-oxoethyl)-1,1-dioxothietan-3-yl]-6-(oxan-4-ylmethoxy)-5-(trifluoromethyl)pyridine-2-carboxamide] | > 10 µM | 41 nM | – | –
NC(=O)CC1(NC(=O)c2cccc(-c3ccc(F)c(Cl)c3)n2)CS(=O)(=O)C1 [Example 79, N-[3-(2-Amino-2-oxoethyl)-1,1-dioxothietan-3-yl]-6-(3-chloro-4-fluorophenyl)pyridine-2-carboxamide] | > 10 µM | 74.7 nM | – | –
NC(=O)CC1(NC(=O)c2ccc(C3CC3)c(OCC3CCCO3)n2)CS(=O)(=O)C1 (centres unmarked) [Example 80, N-[3-(2-Amino-2-oxoethyl)-1,1-dioxothietan-3-yl]-5-cyclopropyl-6-(oxolan-2-ylmethoxy)pyridine-2-carboxamide] | > 10 µM | 2.4 nM | – | –
NC(=O)CC1(NC(=O)c2ccc(C3CC3)c(Cc3ccc(F)cc3)n2)CNC1 [Example 81, N-[3-(2-Amino-2-oxoethyl)azetidin-3-yl]-5-cyclopropyl-6-[(4-fluorophenyl)methyl]pyridine-2-carboxamide] | – | – | > 10 µM | 15 nM
NC(=O)CC1(NC(=O)c2ccc(N3CC(F)(F)C3)c(OCC3CC3)n2)CCOC1 (centres unmarked) [Example 82, N-[3-(2-Amino-2-oxoethyl)oxolan-3-yl]-6-(cyclopropylmethoxy)-5-(3,3-difluoroazetidin-1-yl)pyridine-2-carboxamide] | > 10 µM | 1.5 nM | – | –
NC(=O)CC1(NC(=O)c2ccc(N3CC(F)(F)C3)c(OCC3CC3)n2)CCN(C(=O)OCc2ccccc2)C1 (centres unmarked) [Example 83, Benzyl 3-(2-amino-2-oxoethyl)-3-[[6-(cyclopropylmethoxy)-5-(3,3-difluoroazetidin-1-yl)pyridine-2-carbonyl]amino]pyrrolidine-1-carboxylate] | > 10 µM | 1330 nM | – | –
NC(=O)CC1(NC(=O)c2ccc(N3CC(F)(F)C3)c(OCC3CC3)n2)CCNC1 (centres unmarked) [Example 84, N-[3-(2-Amino-2-oxoethyl)pyrrolidin-3-yl]-6-(cyclopropylmethoxy)-5-(3,3-difluoroazetidin-1-yl)pyridine-2-carboxamide] | > 10 µM | 67.6 nM | – | –
NC(=O)CC1(NC(=O)c2ccc(N3CC(F)(F)C3)c(OCC3CC3)n2)CCNCC1 [Example 85, N-[4-(2-Amino-2-oxoethyl)piperidin-4-yl]-6-(cyclopropylmethoxy)-5-(3,3-difluoroazetidin-1-yl)pyridine-2-carboxamide] | > 10 µM | 270 nM | – | –
NC(=O)CC1(NC(=O)c2ccc(C3CC3)c(OCC3CC3)n2)CCNCC1 [Example 86, N-[4-(2-Amino-2-oxoethyl)piperidin-4-yl]-5-cyclopropyl-6-(cyclopropylmethoxy)pyridine-2-carboxamide] | > 10 µM | 240 nM | – | –
NC(=O)CC1(NC(=O)c2ccc(C3CC3)c(Cc3ccc(F)cc3)n2)CCOC1 (centres unmarked) [Example 87, N-[3-(2-Amino-2-oxoethyl)oxolan-3-yl]-5-cyclopropyl-6-[(4-fluorophenyl)methyl]pyridine-2-carboxamide] | – | – | 0.0348 µM | 0.3 nM
NC(=O)CC1(NC(=O)c2ccc(C3CC3)c(OCC3CC3)n2)CCOC1 (centres unmarked) [Example 88, N-[3-(2-Amino-2-oxoethyl)oxolan-3-yl]-5-cyclopropyl-6-(cyclopropylmethoxy)pyridine-2-carboxamide] | > 10 µM | 2 nM | – | –
NC(=O)CC1(NC(=O)c2ccc(C3(F)CCC3)c(OCC3CC3)n2)COC1 [Example 89, N-[3-(2-Amino-2-oxoethyl)oxetan-3-yl]-6-(cyclopropylmethoxy)-5-(1-fluorocyclobutyl)pyridine-2-carboxamide] | > 10 µM | 11.9 nM | – | –
NC(=O)CC1(NC(=O)c2ccc(C3(O)CCC3)c(OCC3CC3)n2)COC1 [Example 90, N-[3-(2-Amino-2-oxoethyl)oxetan-3-yl]-6-(cyclopropylmethoxy)-5-(1-hydroxycyclobutyl)pyridine-2-carboxamide] | > 10 µM | 8.8 nM | – | –
